Data as given in patent US6706663B2, “Herbicidal 3-heterocyclic substituted benzisothiazole and benzisoxazole compounds” (Wyeth, priority 2000, dated 2004).

Key:
[1] = tested on: GLXMAW (Soybean, Williams); assay: Preemergence herbicidal evaluation; assay type: in vivo, Glycine max, (L.) Merr. cv Williams; conditions: rated 4-5 weeks after treatment
[2] = tested on: CHEAL (Chenopodium album); assay: Postemergence herbicidal evaluation; assay type: in vivo, L.
Method in brief: (§1)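 Seedlings grown for about two weeks were sprayed postemergence and then kept under standard greenhouse care. Injury was rated visually 4–5 weeks after treatment on a 0–9 scale against untreated controls, and ratings from repeat tests were averaged.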

[3] = tested on: CASOB (Cassia obtusifolia); assay: Postemergence herbicidal evaluation; assay type: in vivo, L.
Method in brief: as §1

[4] = tested on: AMBEL (Ambrosia artemisifolia); assay: Postemergence herbicidal evaluation; assay type: in vivo, L.
Method in brief: as §1

[5] = tested on: TRZAWR (Wheat, Winter, cv Riband); assay: Preemergence herbicidal evaluation; assay type: in vivo, Triticum aestivum; conditions: rated 4-5 weeks after treatment
Method in brief: (§2)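 Each species was sown separately in potting soil over roughly one inch of soil, and the surface sprayed with compound dissolved in aqueous acetone. Assessment used a 0–9 visual scale against a control after four to five weeks.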

[6] = tested on: ABUTH (Abutilon theophrasti); assay: Preemergence herbicidal evaluation; assay type: in vivo, Medic.; conditions: rated 4-5 weeks after treatment
[7] = tested on: TRZAWR (Wheat, Winter, cv Riband); assay: Postemergence herbicidal evaluation; assay type: in vivo, Triticum aestivum
Method in brief: as §1

GALAP (Galium aparine) = assay: Preemergence herbicidal evaluation; assay type: in vivo; conditions: rated 4-5 weeks after treatment
Method in brief: as §2

ZEAMX (Corn, Field) = assay: Preemergence herbicidal evaluation; assay type: in vivo, Zea mays, L.; conditions: rated 4-5 weeks after treatment
[8] = tested on: CYPSE (Cyperus serotinus); assay: Flooded paddy, preemergence weed control; assay type: in vivo, Rottb.; conditions: rated 3-4 weeks after treatment, 0-9 rating scale
Method in brief: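 Herbicidal effect was scored visually on a 0–9 scale against an untreated control 3–4 weeks after treatment. Compounds were applied preemergence as 50/50 v/v aqueous/acetone mixtures into flood water (1.5–3 cm deep over silt loam), at roughly 0.0080 to 0.1250 kg/ha active ingredient.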

Row | SMILES | Postemergence herbicidal rating, CHEAL ([2]; rate 0.0320 kg/ha) | Postemergence herbicidal rating, CHEAL ([2]; rate 0.0620 kg/ha) | Postemergence herbicidal rating, CASOB ([3]; rate 0.0320 kg/ha) | Postemergence herbicidal rating, CASOB ([3]; rate 0.0620 kg/ha) | Postemergence herbicidal rating, AMBEL ([4]; rate 0.0320 kg/ha) | Postemergence herbicidal rating, AMBEL ([4]; rate 0.0620 kg/ha) | Postemergence herbicidal rating, TRZAWR ([7]; rate 0.0320 kg/ha) | Postemergence herbicidal rating, TRZAWR ([7]; rate 0.0620 kg/ha) | herbicidal rating, CYPSE ([8]; rate 0.0320 kg/ha) | herbicidal rating, CYPSE ([8]; rate 0.1250 kg/ha) | Preemergence herbicidal rating GLXMAW ([1]; Rate 0.0620 kg/ha) | Preemergence herbicidal rating GLXMAW ([1]; Rate 0.1250 kg/ha) | Preemergence herbicidal rating GLXMAW ([1]; Rate 0.2500 kg/ha) | Preemergence herbicidal rating TRZAWR ([5]; Rate 0.0620 kg/ha) | Preemergence herbicidal rating TRZAWR ([5]; Rate 0.1250 kg/ha) | Preemergence herbicidal rating TRZAWR ([5]; Rate 0.2500 kg/ha) | Preemergence herbicidal rating ABUTH ([6]; Rate 0.0620 kg/ha) | Preemergence herbicidal rating ABUTH ([6]; Rate 0.1250 kg/ha) | Preemergence herbicidal rating ABUTH ([6]; Rate 0.2500 kg/ha) | Preemergence herbicidal rating GALAP (GALAP (Galium aparine); Rate 0.0620 kg/ha) | other results
1 | CCOC(=O)C1CS[C@H](c2nsc3ccc(-n4c(=O)cc(C(F)(F)F)n(C)c4=O)cc23)N1 (stereo partly drawn) [Compound 2, ethyl (R)-2-[5-[3,6-dihydro-3-methyl-2,6-dioxo-4-(trifluoromethyl)-1(2H)-pyrimidinyl]-1,2-benzisothiazol-3-yl]-4-thiazolidinecarboxylate] | 9.0 | 9.0 | 4.0 | 4.0 | 7.0 | 9.0 | 5.0 | 6.5 | 0.0 | 0.0 |  |  |  |  |  |  |  |  |  |  | GLXMAW preemergence herbicidal rating ([1]; Rate 0.0620 kg/ha): 5.5; GLXMAW preemergence herbicidal rating ([1]; Rate 0.1250 kg/ha): 8.0; GLXMAW preemergence herbicidal rating ([1]; Rate 0.2500 kg/ha): 8.0; TRZAWR preemergence herbicidal rating ([5]; Rate 0.0620 kg/ha): 2.0; TRZAWR preemergence herbicidal rating ([5]; Rate 0.1250 kg/ha): 5.0; TRZAWR preemergence herbicidal rating ([5]; Rate 0.2500 kg/ha): 7.0; ABUTH preemergence herbicidal rating ([6]; Rate 0.0620 kg/ha): 9.0; ABUTH preemergence herbicidal rating ([6]; Rate 0.1250 kg/ha): 9.0; ABUTH preemergence herbicidal rating ([6]; Rate 0.2500 kg/ha): 9.0; GALAP preemergence herbicidal rating (GALAP (Galium aparine); Rate 0.0620 kg/ha): 5.0; GALAP preemergence herbicidal rating (GALAP (Galium aparine); Rate 0.1250 kg/ha): 9.0; GALAP preemergence herbicidal rating (GALAP (Galium aparine); Rate 0.2500 kg/ha): 9.0; ZEAMX preemergence herbicidal rating (ZEAMX (Corn, Field); Rate 0.0620 kg/ha): 3.5; ZEAMX preemergence herbicidal rating (ZEAMX (Corn, Field); Rate 0.1250 kg/ha): 6.5; ZEAMX preemergence herbicidal rating (ZEAMX (Corn, Field); Rate 0.2500 kg/ha): 7.5
2 | Cc1cccnc1-c1nsc2cc(F)c(-n3c(=O)cc(C(F)(F)F)n(C)c3=O)cc12 [Compound 44, 3-[6-fluoro-3-(3-methyl-2-pyridyl)-1,2-benzisothiazol-5-yl]-1-methyl-6-(trifluoromethyl)uracil] | 9.0 | 9.0 | 2.0 | 4.0 | 9.0 | 9.0 | 4.0 | 5.0 | 9.0 | 9.0 | 5.0 | 6.5 | 9.0 | 6.0 | 7.0 | 9.0 | 9.0 | 9.0 | 9.0 | 0.0 | Preemergence herbicidal rating GALAP (GALAP (Galium aparine); Rate 0.1250 kg/ha): 9.0; Preemergence herbicidal rating GALAP (GALAP (Galium aparine); Rate 0.2500 kg/ha): 9.0; Preemergence herbicidal rating ZEAMX (ZEAMX (Corn, Field); Rate 0.0620 kg/ha): 7.5; Preemergence herbicidal rating ZEAMX (ZEAMX (Corn, Field); Rate 0.1250 kg/ha): 7.5; Preemergence herbicidal rating ZEAMX (ZEAMX (Corn, Field); Rate 0.2500 kg/ha): 9.0; herbicidal rating, CYPSE ([8]; rate 0.0080 kg/ha): 0.0
3 | Cn1c(C(F)(F)F)cc(=O)n(-c2ccc3snc(C4SCCS4)c3c2)c1=O [Compound 24, 3-[3-(1,3-dithiolan-2-yl)-1,2-benzisothiazol-5-yl]-1-methyl-6-(trifluoromethyl)uracil] | 9.0 | 9.0 | 3.0 | 9.0 | 9.0 | 9.0 | 4.0 | 4.0 | 0.0 | 2.0 |  |  |  |  |  |  |  |  |  |  | GLXMAW preemergence herbicidal rating ([1]; Rate 0.0620 kg/ha): 2.0; GLXMAW preemergence herbicidal rating ([1]; Rate 0.1250 kg/ha): 2.5; GLXMAW preemergence herbicidal rating ([1]; Rate 0.2500 kg/ha): 4.0; TRZAWR preemergence herbicidal rating ([5]; Rate 0.0620 kg/ha): 0.0; TRZAWR preemergence herbicidal rating ([5]; Rate 0.1250 kg/ha): 2.0; ABUTH preemergence herbicidal rating ([6]; Rate 0.0620 kg/ha): 3.5; ABUTH preemergence herbicidal rating ([6]; Rate 0.1250 kg/ha): 7.0; ABUTH preemergence herbicidal rating ([6]; Rate 0.2500 kg/ha): 9.0; GALAP preemergence herbicidal rating (GALAP (Galium aparine); Rate 0.0620 kg/ha): 5.0; GALAP preemergence herbicidal rating (GALAP (Galium aparine); Rate 0.1250 kg/ha): 5.0; ZEAMX preemergence herbicidal rating (ZEAMX (Corn, Field); Rate 0.0620 kg/ha): 0.0; ZEAMX preemergence herbicidal rating (ZEAMX (Corn, Field); Rate 0.1250 kg/ha): 1.0; ZEAMX preemergence herbicidal rating (ZEAMX (Corn, Field); Rate 0.2500 kg/ha): 3.0
4 | CCOc1cc(OCC)nc(-c2nsc3ccc(-n4c(=O)cc(C(F)(F)F)n(C)c4=O)cc23)n1 [Compound 43, 3-[3-(4,6-diethoxy-2-pyrimidinyl)-1,2-benzisothiazol-5-yl]-1-methyl-6-(trifluoromethyl)uracil] | 6.0 | 9.0 | 2.0 | 3.0 | 9.0 | 9.0 | 2.5 | 3.5 | 0.0 | 0.0 | 1.0 | 3.0 | 5.0 | 1.0 | 1.0 | 2.0 | 4.0 | 9.0 | 9.0 | 1.0 | Preemergence herbicidal rating GALAP (GALAP (Galium aparine); Rate 0.1250 kg/ha): 4.0; Preemergence herbicidal rating GALAP (GALAP (Galium aparine); Rate 0.2500 kg/ha): 5.0; Preemergence herbicidal rating ZEAMX (ZEAMX (Corn, Field); Rate 0.0620 kg/ha): 2.0; Preemergence herbicidal rating ZEAMX (ZEAMX (Corn, Field); Rate 0.1250 kg/ha): 2.0; Preemergence herbicidal rating ZEAMX (ZEAMX (Corn, Field); Rate 0.2500 kg/ha): 6.0
5 | Cc1ccc(-c2nsc3ccc(-n4c(=O)cc(C(F)(F)F)n(C)c4=O)cc23)nc1 [Compound 42, 1-methyl-3-[3-(5-methyl-2-pyridyl)-1,2-benzisothiazol-5-yl]-6-(trifluoromethyl)uracil] | 9.0 | 9.0 | 1.0 | 1.0 | 9.0 | 9.0 | 4.0 | 5.0 | 0.0 | 0.0 | 0.0 | 1.0 | 2.5 | 0.0 | 2.0 | 5.0 | 2.0 | 6.5 | 9.0 | 0.0 | Postemergence herbicidal rating, CHEAL ([2]; rate 0.1250 kg/ha): 9.0; Postemergence herbicidal rating, CASOB ([3]; rate 0.1250 kg/ha): 4.0; Postemergence herbicidal rating, AMBEL ([4]; rate 0.1250 kg/ha): 9.0; Postemergence herbicidal rating, TRZAWR ([7]; rate 0.1250 kg/ha): 5.0; Preemergence herbicidal rating GALAP (GALAP (Galium aparine); Rate 0.1250 kg/ha): 0.0; Preemergence herbicidal rating GALAP (GALAP (Galium aparine); Rate 0.2500 kg/ha): 3.0; Preemergence herbicidal rating ZEAMX (ZEAMX (Corn, Field); Rate 0.0620 kg/ha): 3.5; Preemergence herbicidal rating ZEAMX (ZEAMX (Corn, Field); Rate 0.1250 kg/ha): 6.0; Preemergence herbicidal rating ZEAMX (ZEAMX (Corn, Field); Rate 0.2500 kg/ha): 6.5
